Experimental data published in patent US7575908B1, “Immobilization method for producing active α1-acid glycoprotein” (Board of Regents of the University of Nebraska, priority 2005, dated 2009).

Columns and labels:
Format in all cases: binding
α1-acid glycoprotein [1] = assay: Self-competition zonal elution of R- and S-propranolol on immobilized α1-acid glycoprotein HPLC column; details: pH 7.4 phosphate buffered saline, immobilized AGP column
Method: (§1) The α1-acid glycoprotein and hydrazide-activated supports were downward slurry-packed at 28 MPa (4000 psi) into 50×4.1 mm I.D. stainless steel columns. These columns were enclosed in water jackets for temperature control. All studies, except those examining the temperature dependence of propranolol—α1-acid glycoprotein binding, were performed at 37° C. The mobile phases and packing solutions were prepared using pH 7.4 phosphate buffered saline (PBS, composition: 0.013 M potassium dihydrogen phosphate, 0.053 M disodium hydrogen phosphate and 0.133 M sodium chloride). Prior to use, all mobile phases were filtered through a 0.45 μm cellulose acetate filter and degassed under vacuum for 10 min. Elution of R- and S-propranolol was detected by monitoring the absorbance at 225 nm. Zonal elution studies were performed on the α1-acid glycoprotein column by applying pH 7.4 phosphate buffer solution containing up to 20 μM of the desired competing agent while making 20 μL injections of R-propranolol or S-propranolol onto the column. At each concentration of competing agent, three replicate injections of the desired analyte were made. The propranolol samples were prepared by dissolving 5.0 μM R- or S-propranolol in the appropriate mobile phase. All mobile phases containing propranolol were prepared using the individual enantiomers or propranolol. The flow rate ranged from 0.8 to 1.5 mL/min, with no significant changes in the retention factors being noted under this range of conditions.
(§2) The retention times for propranolol were calculated using a B/A0.5 method. The column void volume was determined by making injections of sodium nitrate onto a column containing only hydrazide-activated silica while monitoring the absorbance at 205 nm. All elution times were corrected for the extra-column volume of the chromatographic system, as determined by making injections of R-propranolol or S-propranolol when no column was present. A correction for the small amount of non-specific binding between propranolol and the hydrazide support was made by measuring the retention factors for this drug on a column equivalent in size to the α1-acid glycoprotein column, but containing only hydrazide-activated silica. This was measured at each propranolol concentration in the mobile phase and accounted for 3-15% of the retention factors noted for propranolol on the α1-acid glycoprotein column. […] The column was stored in pH 7.4 PBS buffer at 4° C. when not in use.
All of the results presented in Table 2 were generated by performing self-competition zonal elution studies at temperatures ranging from 5° C. to 37° C. in pH 7.4 phosphate buffered saline. The numbers in parentheses represent a range of ± one standard deviation.

α1-acid glycoprotein [2] = assay: Retention of R- and S-propranolol on α1-acid glycoprotein column as a function of pH; details: for decrease of retention factor: pH decreased from 7.4 to 4.8
Method: as §1, §2
The effect of other separation conditions such as pH were also evaluated. For instance, as the pH decreased from 7.4 to 4.8, the retention factor for R-propranolol decreased from 132 to 17.8 (87%), while the retention factor for S-propranolol decreased from 167 to 17.8 (89%).

[3] = Effects of periodate oxidation on activity of immobilized α1-acid glycoprotein (chromatographic studies); details: 37° C., pH 7.4 PBS
Method: FIG. 2A illustrates an exemplary method for preparing oxidized α1-acid glycoprotein. The conditions chosen for this reaction vary according to the final degree of oxidation desired. […] This mixture was allowed to react for 10 to 15 minutes at room temperature in the dark and quenched by adding 0.25 mL ethylene glycol per milliliter of sample. After this new mixture had reacted for 2 minutes, it was put into a dialysis bag at 4° C. for 2 hours against 2 liters pH 7.0, 20 mM acetate buffer containing 0.15 M sodium chloride. This was followed by three additional two-hour dialysis cycles against 2 liter portions of pH 7.0, 0.10 M potassium phosphate buffer.
Oxidized α1-acid glycoprotein was immobilized to hydrazide-activated silica by a procedure illustrated in FIG. 2C. In exemplary studies, a 5 mL portion of pH 7.0, 0.10 M phosphate buffer containing 1.5 mg/mL oxidized α1-acid glycoprotein was mixed with 0.03 grams of hydrazide-activated silica. This mixture was sonicated under aspirator vacuum for 10 minutes to remove any air bubbles from the suspension. It was then placed onto a shaker and allowed to react at 4° C. for up to seven days, with more than two days being optimum. The reaction was stopped by centrifuging the reaction mixture and removing the supernatant. The support was next washed several times with pH 7.0, 0.10 M phosphate buffer, followed by several additional washings with deionized water. Any hydrazide groups remaining on this support were removed by adding a 200-fold excess of glyceraldehyde versus the support's original hydrazide content. This mixture was shaken at 4° C. for 6 hours. The support was then washed several times with pH 7.0, 0.10 M phosphate buffer. The amount of immobilized α1-acid glycoprotein was determined by comparing the final and initial concentrations of α1-acid glycoprotein in the reaction slurry, using absorbance measurements at 280 nm.
as §1
The retention times for propranolol were calculated using a B/A0.5 method. The column void volume was determined by making injections of sodium nitrate onto a column containing only hydrazide-activated silica while monitoring the absorbance at 205 nm. All elution times were corrected for the extra-column volume of the chromatographic system, as determined by making injections of R-propranolol or S-propranolol when no column was present. […]

[4] = AGP oxidized with 10 mM periodate
[5] = AGP oxidized with 20 mM periodate
[6] = AGP oxidized with 50 mM periodate

| Binding capacity [3, 4] | Binding capacity [3, 5] | Binding capacity [3, 6] | Compound | Association equilibrium constant, Ka (α1-acid glycoprotein [1]; 5° C.) | Association equilibrium constant, Ka (α1-acid glycoprotein [1]; 15° C.) | Association equilibrium constant, Ka (α1-acid glycoprotein [1]; 25° C.) | Association equilibrium constant, Ka (α1-acid glycoprotein [1]; 37° C.) | retention factor (α1-acid glycoprotein [2]; pH 4.8, AGP column) | retention factor (α1-acid glycoprotein [2]; pH 7.4, AGP column) | decrease of retention factor (α1-acid glycoprotein [2]) | Specific activity [3, 4] | Specific activity [3, 5] | Specific activity [3, 6] |
| --- | --- | --- | --- | --- | --- | --- | --- | --- | --- | --- | --- | --- | --- |
| – | – | – | CC(C)NC[C@@H](O)COc1cccc2ccccc12 [R-Propranolol] | 8 (±2) × 10^6 M^−1 | 7 (±1) × 10^6 M^−1 | 3.9 (±0.2) × 10^6 M^−1 | 2.7 (±0.2) × 10^6 M^−1 | 17.8 | 132 | 87% | – | – | – |
| – | – | – | CC(C)NCC(O)COc1cccc2ccccc12 (centres unmarked) [S-Propranolol] | 11 (±3) × 10^6 M^−1 | 9 (±2) × 10^6 M^−1 | 5.2 (±1.7) × 10^6 M^−1 | 4.2 (±0.3) × 10^6 M^−1 | 17.8 | 167 | 89% | – | – | – |
| 6.8 (±0.2) mg/g silica | 6.3 (±0.3) mg/g silica | 6.8 (±0.3) mg/g silica | α1-acid glycoprotein [AGP] | – | – | – | – | – | – | – | 0.67 (±0.02) mg/mg AGP | 0.40 (±0.02) mg/mg AGP | 0.47 (±0.03) mg/mg AGP |
